Source: patent US20140363835A1, “COMPATIBLE SOLUTE ECTOINE AS WELL AS DERIVATIVES THEREOF FOR ENZYME STABILIZATION” (Roche Diagnostics Operations, Inc., priority 2012, published 2014)
“Also recorded” adds a separate entry of the source.

Columns and labels:
Gluc-DOR 31 mutant = assay: Enzymatic activity in test elements including Gluc-DOR 31 mutant; assay type: biochemical; details: dry test element; after 3 weeks at 45° C.
Procedure: (§1) A test element with Gluc-DOR and a mutant thereof (Gluc-DOR 31) was generated as described above in Example 1. The test element was analyzed as described above in Example 2. The determination of the enzymatic activity was carried out using nitrosoaniline as described in EP Patent No. 0 620 283.

[1] = system: glucose dehydrogenase and diaphorase; assay: Enzymatic activity in test elements with different buffers; assay type: biochemical, B. subtilis; details: 2 g ectoine per 100 g first coating film; phosphate-buffer pH 6.8 or HEPES pH 7.1; 45 days, 45° C. to 4° C.
From the text: Test elements were stored and treated essentially as described in Example 3. Different buffers, namely a phosphate-buffer pH 6.8, without stabilizer, a phosphate-buffer pH 6.8, 2 g ectoine per 100 g first coating film, a HEPES buffer pH 7.1, without stabilizer, and a HEPES buffer pH 7.1, 2 g ectoine per 100 g first coating film, were used in the coating compositions as indicated in FIG. 4.

[2] = system: diaphorase from B. subtilis; assay: Enzymatic activity in eluted test elements after dry storage (diaphorase); assay type: biochemical; details: test elements stored dry 6 weeks at 45° C.
Procedure: (§2) Four different reaction films for determining glucose levels were generated and coated on a foil essentially as described in EP Patent No. 0 821 234. The formulation of the first coat/film layer composition is shown below in Table 1.
(§3) The pH was adjusted to 6.8, and the composition was coated as a first film (about 120 μm) on a polycarbonate foil (125 μm). The coated composition was subsequently dried at 50° C.
(§4) The pH was adjusted to 6.8, and the composition was coated as a second film (about 25 μm) onto the first film coated on the foil. The coated composition was subsequently dried at 50° C. Test strips for glucose determination were generated as described in EP Patent No. 0 821 234.
(§5) Test elements were stored in plastic vials in the presence of a drying agent for 6 weeks at 45° C. In a subsequent step, the test field of a test element was eluted by ultra-sonication using elution buffer. Enzymatic activity was determined in the supernatant.

glucose oxidase = glucose oxidase (Aspergillus niger, UniProt P13006); details: test elements for electrochemically determining glucose; WO 2007/097653, Loose (2006); cited from earlier work
Sequence of glucose oxidase (P13006 17-605, species assumed): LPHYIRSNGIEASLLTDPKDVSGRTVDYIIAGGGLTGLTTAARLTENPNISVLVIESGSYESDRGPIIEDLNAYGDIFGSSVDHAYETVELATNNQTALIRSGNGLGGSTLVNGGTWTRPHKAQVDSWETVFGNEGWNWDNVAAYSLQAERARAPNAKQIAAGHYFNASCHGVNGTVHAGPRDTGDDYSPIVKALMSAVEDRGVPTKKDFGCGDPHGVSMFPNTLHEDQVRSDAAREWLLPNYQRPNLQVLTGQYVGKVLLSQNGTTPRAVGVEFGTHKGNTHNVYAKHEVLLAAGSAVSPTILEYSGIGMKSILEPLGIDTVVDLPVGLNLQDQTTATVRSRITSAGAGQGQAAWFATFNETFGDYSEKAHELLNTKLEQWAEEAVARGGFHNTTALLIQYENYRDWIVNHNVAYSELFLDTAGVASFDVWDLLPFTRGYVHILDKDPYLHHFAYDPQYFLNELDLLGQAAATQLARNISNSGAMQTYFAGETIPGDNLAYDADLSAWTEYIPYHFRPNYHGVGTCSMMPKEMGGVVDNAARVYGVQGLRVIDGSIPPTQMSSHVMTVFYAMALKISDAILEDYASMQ

[3] = system: glucose dehydrogenase and diaphorase; assay: Blood glucose measurement with stored test elements as indicator for enzymatic activity; assay type: biochemical, B. subtilis; details: 1 g/100 g composition; stored 63 days at 4, 24, 35 and 45° C.; normalized to 4° C.
Procedure: Test elements were stored in plastic vials in the presence of a drying agent for 63 days at 4° C. (KS), 24° C. (RT), 35° C. (DT) and 45° C. (HT). Test elements were used to determine blood glucose levels in a plurality of venous blood samples. The samples were measured with a reference method (Hitachi) in parallel. Results were normalized with respect to the KS stored test elements.

GDH from B. subtilis = GDH from B. subtilis (Bacillus subtilis, UniProt P12310); assay: Enzymatic activity in eluted test elements after dry storage (GDH); assay type: biochemical; details: concentrations larger than 0.3 g/100 g coating composition; test elements stored dry 6 weeks at 45° C.
Sequence of GDH from B. subtilis (P12310 whole entry): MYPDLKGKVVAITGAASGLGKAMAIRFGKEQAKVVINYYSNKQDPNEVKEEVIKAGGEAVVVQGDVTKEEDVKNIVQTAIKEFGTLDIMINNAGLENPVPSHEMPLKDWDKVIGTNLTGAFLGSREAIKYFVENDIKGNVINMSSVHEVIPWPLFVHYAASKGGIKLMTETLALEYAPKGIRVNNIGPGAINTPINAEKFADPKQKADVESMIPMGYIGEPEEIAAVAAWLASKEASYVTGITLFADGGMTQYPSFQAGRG
Procedure: as §2, §3, §4, §5

[4] = system: Glucose dehydrogenase Mut. 2; assay: Enzymatic activity of glucose dehydrogenase mutant 2 in solution after storage; assay type: biochemical; details: for stabilizing effect in solution: 1-4% (w/v) stabilizer in solution, storage at 4, 35 or 45° C.; for Enzymatic Activity: in solution
Procedure: Aliquots of a solution including a glucose dehydrogenase mutant 2 as disclosed in WO Patent Application Publication No. 2011/020856 was combined with different amounts of ectoine or hydroxyectoine as indicated below in Table 4.
The aliquots were stored under different storage conditions (8 days, 4° C.; 8 days 35° C., 4 days 4° C. followed by 4 days 45° C.), and the enzymatic activity was determined after the storage.

[5] = target: Gluc-DOR (a PQQ-dependent GDH) (Acinetobacter calcoaceticus, UniProt P13650); assay: Enzymatic activity in test elements including Gluc-DOR; assay type: biochemical; details: dry test element; after 3 weeks at 45° C.
Sequence of Gluc-DOR (a PQQ-dependent GDH) (P13650 25-478): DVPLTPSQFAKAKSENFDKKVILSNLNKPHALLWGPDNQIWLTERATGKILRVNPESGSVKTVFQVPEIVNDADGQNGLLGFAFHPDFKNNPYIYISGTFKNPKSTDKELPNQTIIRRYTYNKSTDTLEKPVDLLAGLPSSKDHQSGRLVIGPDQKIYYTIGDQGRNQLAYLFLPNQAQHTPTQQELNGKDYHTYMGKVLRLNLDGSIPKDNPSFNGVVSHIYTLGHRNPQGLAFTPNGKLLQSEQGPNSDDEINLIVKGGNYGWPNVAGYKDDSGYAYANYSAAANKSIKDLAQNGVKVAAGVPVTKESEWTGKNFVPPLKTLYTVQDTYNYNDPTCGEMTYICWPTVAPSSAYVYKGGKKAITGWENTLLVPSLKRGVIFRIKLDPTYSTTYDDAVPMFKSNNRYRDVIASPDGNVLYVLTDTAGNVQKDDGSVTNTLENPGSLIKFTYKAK
Procedure: as §1

lactate dehydrogenase = details: in solution; Andersson et al. (2000); cited from earlier work
[6] = stabilizer about 1%, 4 days at 4° C., 4 days at 45° C.
[7] = stabilizer about 1%, 8 days at 4° C.
[8] = stabilizer about 1%, 8 days at 35° C.
[9] = stabilizer about 2%, 4 days at 4° C., 4 days at 45° C.
[10] = stabilizer about 2%, 8 days at 4° C.
[11] = stabilizer about 2%, 8 days at 35° C.
[12] = stabilizer about 4%, 4 days at 4° C., 4 days at 45° C.
[13] = stabilizer about 4%, 8 days at 4° C.
[14] = stabilizer about 4%, 8 days at 35° C.

CC1=NCC[C@@H](C(=O)O)N1 [ectoine, (S)-2-methyl-3,4,5,6-tetrahydropyrimidine-4-carboxylic acid]
stabilizing effect on Gluc-DOR 31 mutant (Gluc-DOR 31 mutant): stabilizing effect
stabilizing activity with different buffers [1]: observed independent of the buffer system
stabilization of diaphorase [2]: stabilized
stabilization of glucose oxidase (glucose oxidase): Stabilization
preservation of enzymatic activities (measured glucose level) [3]: act as stabilizers
stabilizing effect (activity versus test elements without stabilizer) (GDH from B. subtilis): more than 10%
stabilizing effect in solution [4]: No stabilizing effect; also recorded: not observed
Enzymatic Activity [4, 6]: 60 kU/g
Enzymatic Activity [4, 7]: 222 kU/g
Enzymatic Activity [4, 8]: 144 kU/g
Enzymatic Activity [4, 9]: 59 kU/g
Enzymatic Activity [4, 10]: 222 kU/g
Enzymatic Activity [4, 11]: 149 kU/g
Enzymatic Activity [4, 12]: 57 kU/g
Enzymatic Activity [4, 13]: 207 kU/g
Enzymatic Activity [4, 14]: 137 kU/g
stabilizing effect on Gluc-DOR [5]: stabilizing effect

CC1=NC[C@H](O)[C@@H](C(=O)O)N1 [hydroxyectoine]
stabilization of diaphorase [2]: stabilized
stabilization of glucose oxidase (glucose oxidase): Stabilization
prevention of protein aggregation (lactate dehydrogenase): incapable of preventing protein aggregation
preservation of enzymatic activities (measured glucose level) [3]: act as stabilizers
stabilizing effect (activity versus test elements without stabilizer) (GDH from B. subtilis): same effect
stabilizing effect in solution [4]: No stabilizing effect
Enzymatic Activity [4, 6]: 52 kU/g
Enzymatic Activity [4, 7]: 208 kU/g
Enzymatic Activity [4, 8]: 122 kU/g
Enzymatic Activity [4, 9]: 60 kU/g
Enzymatic Activity [4, 10]: 221 kU/g
Enzymatic Activity [4, 11]: 141 kU/g
Enzymatic Activity [4, 12]: 56 kU/g
Enzymatic Activity [4, 13]: 207 kU/g
Enzymatic Activity [4, 14]: 131 kU/g
